Data as given in ChEMBL document CHEMBL4325928, “Structure-Property Basis for Solving Transporter-Mediated Efflux and Pan-Genotypic Inhibition in HCV NS5B Inhibitors” (ACS Med Chem Lett, 2018).

Columns and labels:
[1] = Efflux ratio of permeability from basolateral side to apical side over apical side to basolateral side in human Caco2 cells expressing p-gp at 3 uM incubated for 2 hrs by LC-MS/MS analysis; type: ADME, cell-based; conditions: Caco-2
[2] = Permeability across apical side to basolateral side in human Caco2 cells expressing p-gp at 3 uM incubated for 2 hrs by LC-MS/MS analysis; type: ADME, cell-based; conditions: Caco-2, read-out: permeability
[3] = Permeability across basolateral side to apical side in human Caco2 cells expressing p-gp at 3 uM incubated for 2 hrs by LC-MS/MS analysis; type: ADME, cell-based; conditions: Caco-2, read-out: permeability
[4] = Permeability of the compound at pH 7.4 by PAMPA; type: ADME; conditions: read-out: permeability
[5] = Tmax in cannulated Sprague-Dawley rat at 6 mg/kg, po administered via gastric gavage by LC-MS/MS analysis; type: ADME, organism-based; conditions: in vivo
[6] = Clearance in cannulated Sprague-Dawley rat at 2 mg/kg, iv administered as 10 mins infusion by LC-MS/MS analysis; type: ADME, organism-based; conditions: in vivo
[7] = AUC in cannulated Sprague-Dawley rat at 6 mg/kg, po administered via gastric gavage by LC-MS/MS analysis; type: ADME, organism-based; conditions: in vivo
[8] = Oral bioavailability in cannulated Sprague-Dawley rat at 6 mg/kg administered via gastric gavage by LC-MS/MS analysis; type: ADME, organism-based; conditions: in vivo
[9] = Half life in rat liver microsomes; type: ADME, Microsome
[10] = Cmax in cannulated Sprague-Dawley rat at 6 mg/kg, po administered via gastric gavage by LC-MS/MS analysis; type: ADME, organism-based; set-up: dose 6 mg/kg, route oral; conditions: in vivo
[11] = Half life in cannulated Sprague-Dawley rat at 2 mg/kg, iv administered as 10 mins infusion by LC-MS/MS analysis; type: ADME, organism-based; conditions: in vivo
[12] = Half life in human liver microsomes; type: ADME, Microsome
[13] = Volume of distribution at steady state in cannulated Sprague-Dawley rat at 2 mg/kg, iv administered as 10 mins infusion by LC-MS/MS analysis; type: ADME, organism-based; conditions: in vivo, read-out: Vdss
[14] = Drug level in cannulated Sprague-Dawley rat liver at 6 mg/kg, po administered via gastric gavage measured after 5 hrs by LC-MS/MS analysis; type: ADME, organism-based; conditions: read-out: Drug uptake
[15] = Stability in rat liver microsomes assessed as parent compound remaining; type: ADME, Microsome
[16] = Stability in human liver microsomes assessed as parent compound remaining; type: ADME, Microsome
[17] = Drug level in cannulated Sprague-Dawley rat liver at 6 mg/kg, po administered via gastric gavage measured after 24 hrs by LC-MS/MS analysis; type: ADME, organism-based; conditions: read-out: Drug uptake
[18] = Drug level in cannulated Sprague-Dawley rat plasma at 6 mg/kg, po administered via gastric gavage measured after 5 hrs by LC-MS/MS analysis; type: ADME, organism-based

efflux ratio at 2 h, 3 µM [1]	Papp A→B at 2 h, 3 µM [2]	Papp B→A at 2 h, 3 µM [3]	Papp [4]	SMILES	also measured
9.6	2.4 ×10⁻⁶ cm/s	23.2 ×10⁻⁶ cm/s	66 ×10⁻⁶ cm/s	CCN(C(=O)OC)c1cc2oc(-c3ccc(F)cc3)c(C(=O)NC)c2cc1-c1ccc(OC)c(C(=O)NC2(c3ncccn3)CC2)c1	
> 12.4	< 1.5 ×10⁻⁶ cm/s	18.5 ×10⁻⁶ cm/s	48.7 ×10⁻⁶ cm/s	CCN(c1cc2oc(-c3ccc(F)cc3)c(C(=O)NC)c2cc1-c1ccc(OC)c(C(=O)NC2(c3ncccn3)CC2)c1)S(C)(=O)=O	Tmax [5]: 1.9 h; clearance [6]: 60 mL/min/kg; AUC [7]: 0.74 µM·h; bioavailability [8]: 20%; half-life [9]: > 2 h; Cmax [10]: 223 nM; half-life [11]: 1.6 h; half-life [12]: 1.52 h; Vd [13]: 14 L/kg; concentration at 5 h [14]: 1180 nM
				CNC(=O)c1c(-c2ccc(F)cc2)oc2cc(N(CCO)S(C)(=O)=O)c(-c3cccc(C(=O)NC4(c5ccccn5)CC4)c3)cc12	Stability [15]: 8.7%; Stability [16]: 99%
9.8	3.3 ×10⁻⁶ cm/s	32.2 ×10⁻⁶ cm/s	40.9 ×10⁻⁶ cm/s	CCN(c1cc2oc(-c3ccc(F)cc3)c(C(=O)NC)c2cc1-c1cc(C)c(OC)c(C(=O)NC2(c3ncccn3)CC2)c1)S(C)(=O)=O	
7.8	7.9 ×10⁻⁶ cm/s	62.3 ×10⁻⁶ cm/s	73.1 ×10⁻⁶ cm/s	CCN(c1cc2oc(-c3ccc(F)cc3)c(C(=O)NC)c2cc1-c1cc(F)c(F)c(C(=O)NC2(c3ncccn3)CC2)c1)S(C)(=O)=O	
0.8	23.2 ×10⁻⁶ cm/s	17.6 ×10⁻⁶ cm/s	72 ×10⁻⁶ cm/s	CCNc1cc2oc(-c3ccc(F)cc3)c(C(=O)NC)c2cc1-c1ccc(OC)c(C(=O)NC2(c3ncccn3)CC2)c1	Tmax [5]: 5.3 h; clearance [6]: 11 mL/min/kg; AUC [7]: 7.8 µM·h; bioavailability [8]: 57%; half-life [9]: 0.65 h; Cmax [10]: 776 nM; half-life [11]: 4.7 h; concentration at 24 h [17]: 391 nM; half-life [12]: 0.6 h; Vd [13]: 4 L/kg; concentration at 5 h [14]: 5260 nM
				CNC(=O)c1c(-c2ccc(F)cc2)oc2cc(N(CCO)S(C)(=O)=O)c(-c3cccc(C(=O)NC4(c5ccccc5)CC4)c3)cc12	Stability [15]: 0.6%; Stability [16]: 63%
				CNC(=O)c1c(-c2ccc(F)cc2)oc2ccc(-c3cccc(C(=O)NC4(c5ccccn5)CC4)c3)cc12	Stability [15]: 54%; Stability [16]: 91%
> 20.5	< 1.5 ×10⁻⁶ cm/s	30.8 ×10⁻⁶ cm/s	46.6 ×10⁻⁶ cm/s	CCN(C(C)=O)c1cc2oc(-c3ccc(F)cc3)c(C(=O)NC)c2cc1-c1ccc(OC)c(C(=O)NC2(c3ncccn3)CC2)c1	
2.2	5.2 ×10⁻⁶ cm/s	11.4 ×10⁻⁶ cm/s	82.1 ×10⁻⁶ cm/s	CCN(c1cc2oc(-c3ccc(F)cc3)c(C(=O)NC)c2cc1-c1cc(Cl)c(OC)c(C(=O)NC2(c3ncccn3)CC2)c1)S(C)(=O)=O	half-life [9]: 0.433 h; half-life [12]: 0.232 h; concentration at 5 h [18]: 277 nM; concentration at 5 h [14]: 7180 nM
> 8.6	< 1.5 ×10⁻⁶ cm/s	13 ×10⁻⁶ cm/s		CCN(c1cc2oc(-c3ccc(F)cc3)c(C(=O)NC)c2cc1-c1cccc(C(=O)NC2(c3ncccn3)CC2)c1)S(C)(=O)=O	Stability [15]: 91%; Stability [16]: 100%; half-life [9]: 0.817 h; half-life [12]: > 2 h
2.7	4.2 ×10⁻⁶ cm/s	11.5 ×10⁻⁶ cm/s	83.5 ×10⁻⁶ cm/s	CCN(C(=O)C(F)(F)F)c1cc2oc(-c3ccc(F)cc3)c(C(=O)NC)c2cc1-c1ccc(OC)c(C(=O)NC2(c3ncccn3)CC2)c1	
24.1	2 ×10⁻⁶ cm/s	47.9 ×10⁻⁶ cm/s	57.5 ×10⁻⁶ cm/s	CCN(C(=O)N(C)C)c1cc2oc(-c3ccc(F)cc3)c(C(=O)NC)c2cc1-c1ccc(OC)c(C(=O)NC2(c3ncccn3)CC2)c1	
13.8	2.9 ×10⁻⁶ cm/s	40.6 ×10⁻⁶ cm/s	65.9 ×10⁻⁶ cm/s	CCN(c1cc2oc(-c3ccc(F)cc3)c(C(=O)NC)c2cc1-c1cc(F)c(OC)c(C(=O)NC2(c3ncccn3)CC2)c1)S(C)(=O)=O	
